# Patent US20250019385A1, “SPIROCYCLIC ANNULATED 2-AMINO-3-CYANO THIOPHENES AND DERIVATIVES FOR THE TREATMENT OF CANCER” (Boehringer Ingelheim International GmbH, priority 2023, published 2025)
# Where two headings read alike, the source gives them in different places.
# Tests used:
# [1] = Plasma protein binding assay (PPB), equilibrium dialysis; assay type: in vitro ADME; conditions: bovine, 10% FCS in PBS, read-out: PPB 10% FCS (% fu)
# Description: Binding of test compounds to plasma was determined using equilibrium dialysis (ED) and quantitative mass spectrometry interfaced with liquid chromatography (LC-MS). In brief, ED was performed with dialysis devices consisting of two chambers separated by a semipermeable membrane with a molecular weight cut-off of 5-10 kg/mol. One chamber was filled with 10% FCS in PBS containing 1-10 μmol/L test compound and the other chamber was filled with phosphate-buffer saline (PBS) with or without dextran. The dialysis chamber was incubated for 3-5 hours at 37° C. After incubation, protein was precipitated from aliquots of each chamber and the concentration of test compound in the supernatant of the plasma-containing compartment (cserum) and of the buffer-containing compartment (cbuffer) was determined by LC-MS. The fraction of unbound test compound (not bound to plasma) (f) was calculated according to the following equation: […]
# [2] = Solubility measurement (DMSO solution precipitation method); assay type: physicochemical; conditions: aqueous buffer, kinetic from dmso stock
# Description: A 10 mM DMSO stock solution of a test compound is used to determine its aq. solubility. The DMSO solution is diluted with an aq. medium (McIlvaine buffer with pH=4.5 or 6.8) to a final concentration of 250 μM. After 24 h of shaking at ambient temperature a potentially formed precipitate is removed by filtration. The concentration of the test compound in the filtrate is determined by LC-UV methods by calibrating the signal to the signal of a reference solution with complete dissolution of the test compound in acetonitrile/water (1:1) with known concentration.
# SK-CO-1 cells = assay: SK-CO-1 CTG proliferation assay (120 h) (CRC, G12V); assay type: cell-based; conditions: Homo sapiens
# Description: SK—CO-1 cells (ATCC HTB-39) are dispensed into black 384-well plates, flat and clear bottom (Greiner, PNr. 781091) at a density of 500 cells per well in 60 μl EMEM (Sigma M5650)+10% FCS (fetal calf serum, HyClone, SH30084.03). Cells are incubated overnight at 37° C. in a humidified tissue culture incubator at 5% CO2. Compounds (10 mM stock in DMSO) are added at logarithmic dose series using the ECHO acoustic liquid handler system (Beckman Coulter), normalizing for added DMSO and including DMSO controls. All compound treatments are performed in technical duplicates. For the TO time point measurement, untreated cells are analyzed at the time of compound addition. Plates are incubated for 120 h, and cell viability is measured using CellTiter-Glo luminescent cell viability reagent (Promega product code G7570). Viability (stated as percent of control) is defined as relative luminescence units RLU of each well divided by the RLU of cells in DMSO controls. IC50 values are determined from viability measurements by non-linear regression using a four-parameter model.
# IC50 values of representative compounds according to the invention measured with these assays in the indicated cell lines are presented in Table 46.
# [3] = molecular target: KRAS (G12C)::SOS1 protein-protein interaction (Homo sapiens (Human), UniProt P01116, C118S/C51S/C80L/G12C); assay: KRAS::SOS1 AlphaScreen binding assay (KRAS G12C); conditions: GDP
# KRAS (G12C)::SOS1 protein-protein interaction, sequence (P01116 other isoform, or with tags, fused parts or gaps G12C/C51S/C80L/C118S): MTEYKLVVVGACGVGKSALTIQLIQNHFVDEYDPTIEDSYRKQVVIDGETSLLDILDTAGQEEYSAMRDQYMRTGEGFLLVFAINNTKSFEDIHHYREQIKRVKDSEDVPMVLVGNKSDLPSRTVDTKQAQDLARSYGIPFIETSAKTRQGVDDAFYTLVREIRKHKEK
# Excerpt: This assay can be used to examine the potency with which compounds according to the invention binding to (mutated) KRAS inhibit the protein-protein interaction between SOS1 and (mutated) KRAS e.g. KRAS G12C, KRAS G12D. […] Low IC50 values in this assay setting are indicative of strong inhibition of protein-protein interaction between SOS1 and KRAS:
# These assays measure the inhibitory effect of compounds on KRAS mutant protein-protein interactions using the Alpha Screen technology by Perkin Elmer.
# The following (mutant) enzyme forms of KRAS and interacting proteins are used in these assays at the given concentrations:
# KRAS (G12C) 1-169, N-terminal 6His-tag for purification, cleaved off, C-terminal avi-tag, biotinylated, mutations: C51S, C80L, C118S (in house); final assay concentration 7.5 nM and SOS1 564-1049, N-terminal 229 GST-tag, TEV cleavage site (Viva Biotech Ltd); final assay concentration 5 nM;
# Test compounds dissolved in DMSO are dispensed onto assay plates (Proxiplate 384 PLUS, white, PerkinElmer; 6008289) using an Access Labcyte Workstation with the Labcyte Echo 55x. For the chosen highest assay concentration of 100 μM, 150 nL of compound solution are transferred from a 10 mM DMSO compound stock solution. A series of eleven fivefold dilutions per compound are transferred to the assay plate, compound dilutions are tested in duplicates. DMSO are added as backfill to a total volume of 150 nL.
# The assays run on a fully automated robotic system in a darkened room below 100 Lux. To 150 nl of compound dilution 10 μl of a mix including KRAS mutant protein, SOS1 (final assay concentrations see above) and GDP nucleotide (Sigma G7127; final assay concentration 10 μM) in assay buffer (1×PBS, 0.1% BSA, 0.05% Tween 20) are added into columns 1-24.
# After 30 minutes incubation time 5 μl of Alpha Screen bead mix in assay buffer are added into columns 1-23. Bead mix consists of AlphaLISA Glutathione Acceptor Beads (PerkinElmer, Cat No AL109) and AlphaScreen Streptavidin Donor Beads (PerkinElmer Cat No 6760002) in assay buffer at a final assay concentration of 10 μg/mL each.
# Plates are kept at room temperature in a darkened incubator. After an additional 60 minutes incubation time the signal is measured in a PerkinElmer Envision HTS Multilabel Reader using the AlphaScreen specs from PerkinElmer.
# Each plate contains up to 16 wells of a negative control depending on the dilution procedure (platewise or serial) (DMSO instead of test compound; with KRAS mutant::SOS1 GOP mix and bead mix; column 23) and 16 wells of a positive control (DMSO instead of test compound; with KRAS mutant::SOS1 GOP mix w/o bead mix; column 24).
# As internal control known inhibitors of KRAS mutant::SOS1 interaction can be measured on each compound plate.
# IC50 values are calculated and analyzed with Boehringer Ingelheim's MEGALAB C50 application using a 4 parametric logistic model.
# Tables of example compounds disclosed herein contain IC50 values determined using the above assays (see Table 43).
# [4] = McIlvaine buffer pH 4.5, 24 h, read-out: solubility pH 4.5
# [5] = McIlvaine buffer pH 6.8, 24 h, read-out: solubility pH 6.8
SMILES,fraction unbound [1],"solubility at 24 h [2, 4]","solubility at 24 h [2, 5]",IC50 (SK-CO-1 cells),IC50 [3]
C[C@H](Oc1nc(-c2onc3c2CCC[C@@]32CCCc3sc(N)c(C#N)c32)nc2c1n(C)c(=O)n2[C@H]1CC2CCC1O2)[C@@H]1CCCN1C (stereo partly drawn) [I-17],0.04,> 155 µg/mL,> 148 µg/mL,83 nM,2 nM
C[C@H](Oc1nc(-c2onc3c2CCC[C@@]32CCCc3sc(N)c(C#N)c32)nc2c1n(C)c(=O)n2[C@H]1CCCOC1)[C@@H]1CCCN1C [I-11],0.06,> 149 µg/mL,99 µg/mL,445 nM,4 nM
C[C@H](Oc1nc(-c2onc3c2CCC[C@@]32CCCc3sc(N)c(C#N)c32)nc2c1n(C)c(=O)n2[C@H]1CCOC1)[C@@H]1CCCN1C [I-9],0.25,> 149 µg/mL,> 144 µg/mL,75 nM,2 nM
COCCn1c(=O)n(C)c2c(O[C@@H](C)[C@@H]3CCCN3C)nc(-c3onc4c3CCC[C@@]43CCCc4sc(N)c(C#N)c43)nc21 [I-7],0.24,> 150 µg/mL,> 147 µg/mL,190 nM,3 nM
C[C@H](Oc1nc(-c2noc3c2CCC[C@@]32CCCc3sc(N)c(C#N)c32)nc2c1CN(c1ncccn1)[C@@]21CCOC1)[C@@H]1CCCN1C [II-7b],0.05,62 µg/mL,23 µg/mL,154 nM,3 nM
Cc1nn([C@@H]2CCOC2)c2nc(-c3onc4c3CCC[C@@]43CCCc4sc(N)c(C#N)c43)nc(O[C@@H](C)[C@@H]3CCCN3C)c12 [I-42],0.11,> 145 µg/mL,112 µg/mL,46 nM,2 nM
C[C@H](Oc1nc(-c2onc3c2CCC[C@@]32CCCc3sc(N)c(C#N)c32)nc2c1N(C)C(=O)CN2[C@@H]1CCOC1)[C@@H]1CCCN1C [I-37],0.13,> 151 µg/mL,113 µg/mL,323 nM,7 nM
CO[C@H]1C[C@@H]([C@H](C)Oc2nc(-c3onc4c3CCC[C@@]43CCCc4sc(N)c(C#N)c43)nc3c2n(C)c(=O)n3[C@@H]2CCOC2)N(C)C1 [I-2],0.15,> 159 µg/mL,115 µg/mL,43 nM,1 nM
Cc1nc2c(O[C@@H](C)[C@@H]3CCCN3C)nc(-c3onc4c3CCC[C@@]43CCCc4sc(N)c(C#N)c43)nc2n1[C@@H]1CCOC1 [I-39],0.24,> 147 µg/mL,> 137 µg/mL,14 nM,2 nM
C[C@H](Oc1nc(-c2onc3c2CCC[C@@]32CCCc3sc(N)c(C#N)c32)nc2c1n(C)c(=O)n2[C@@H]1CCOC1)[C@@H]1C[C@@H]2C[C@@H]2N1C [I-28],0.05,> 166 µg/mL,16 µg/mL,67 nM,2 nM
CCn1c(=O)n([C@@H]2CCCOC2)c2nc(-c3onc4c3CCC[C@@]43CCCc4sc(N)c(C#N)c43)nc(OCC3(CN4CCCC4)CC3)c21 [I-35],0.07,,,185 nM,2 nM
C[C@H](Oc1nc(-c2onc3c2CCC[C@@]32CCCc3sc(N)c(C#N)c32)nc2c1CN(C1COC1)C[C@]21CCOC1)[C@@H]1CCCN1C [I-56],0.3,> 157 µg/mL,> 147 µg/mL,7 nM,

# The remaining compounds from weak to strong by IC50 (SK-CO-1 cells), led by results:
fraction unbound [1],"solubility at 24 h [2, 4]","solubility at 24 h [2, 5]",IC50 (SK-CO-1 cells),IC50 [3],SMILES
0.17,> 164 µg/mL,< 1 µg/mL,7 nM,2 nM,CO[C@H]1CCN(C)[C@@H]1[C@H](C)Oc1nc(-c2onc3c2CCC[C@@]32CCCc3sc(N)c(C#N)c32)nc2c1n(C)c(=O)n2[C@@H]1CCCOC1 [I-6]
0.2,> 159 µg/mL,> 137 µg/mL,6 nM,,C[C@H](Oc1nc(-c2onc3c2CCC[C@@]32CCCc3sc(N)c(C#N)c32)nc2c1CN(C1COC1)C[C@]21CCOC1)[C@@H]1CC[C@H](C)N1C [I-55]
0.3,> 147 µg/mL,> 148 µg/mL,5 nM,2 nM,C[C@H](Oc1nc(-c2noc3c2CCC[C@@]32CCCc3sc(N)c(C#N)c32)nc2c1CNC[C@]21CCOC1)[C@@H]1CCCN1C [II-15]
0.09,> 144 µg/mL,45 µg/mL,4 nM,2 nM,CO[C@@H]1C[C@@H]([C@H](C)Oc2nc(-c3noc4c3CCC[C@@]43CCCc4sc(N)c(C#N)c43)nc3c2COC[C@]32CCOC2)N(C)C1 [II-11]
0.11,> 157 µg/mL,77 µg/mL,4 nM,1 nM,CO[C@@H]1C[C@@H]([C@H](C)Oc2nc(-c3onc4c3CCC[C@@]43CCCc4sc(N)c(C#N)c43)nc3c2n(C)c(=O)n3[C@@H]2CCOC2)N(C)C1 [I-3]
0.09,> 161 µg/mL,37 µg/mL,4 nM,1 nM,CO[C@H]1CCN(C)[C@@H]1[C@H](C)Oc1nc(-c2noc3c2CCC[C@@]32CCCc3sc(N)c(C#N)c32)nc2c1n(C)c(=O)n2[C@@H]1CCOC1 [II-1]
0.28,,,4 nM,1 nM,C[C@H](Oc1nc(-c2noc3c2CCC[C@@]32CCCc3sc(N)c(C#N)c32)nc2c1CCCO[C@]21CCOC1)[C@@H]1CCCN1C [II-10]
0.19,> 154 µg/mL,> 153 µg/mL,3 nM,1 nM,C[C@H](Oc1nc(-c2noc3c2CCC[C@@]32CCCc3sc(N)c(C#N)c32)nc2c1n(C)c(=O)n2[C@@H]1CCOC1)[C@@H]1CCCN1C [II-2]
0.13,> 142 µg/mL,> 143 µg/mL,1 nM,1 nM,C[C@H](Oc1nc(-c2noc3c2CCC[C@@]32CCCc3sc(N)c(C#N)c32)nc2c1COC[C@]21CCOC1)[C@@H]1CCCN1C [II-8]
